Test results: patent publication US20250224399A1, “METHOD FOR DETECTING HOMOCYSTEINE IN PLASMA AND METHOD FOR DIAGNOSING GLIOBLASTOMA BY USING NOVEL FLUORESCENT PROBE” (UNIVERSITY-INDUSTRY COOPERATION GROUP OF KYUNG HEE …, priority 2022, published 2025)

What was measured:
[1] = Homocysteine reaction time and selectivity among amino thiols (fluorescence over 0 to 30 minutes); details: pH 7.4 PBS buffer
Method: In order to identify whether Compound 1 (NPO-pyr) would react with various types of aminothiols including homocysteine under neutral conditions (pH 7.4), Compound 1 and aminothiol were added to an aqueous solution of neutral conditions (pH 7.4, PBS buffer) and the fluorescence emission graph was measured.
Specifically, Compound 1 (10 μM) was reacted with homocysteine (DL-homocysteine, 10 μM), cysteine (10 μM), glutathione (L-glutathione, 10 μM), and hydrogen sulfide (10 μM) in an aqueous solution (pH 7.4, PBS buffer), and the fluorescence value was measured (excitation wavelength: 460 nm). Amino thiols including homocysteine were purchased from Sigma, TCI, and a fluorophotometer (SHIMADZU CORP. RF-6000, Japan) was used for fluorescence spectra analysis. In this connection, the cell that puts the compound into each device was a standard quartz cell with a thickness of 1 cm (internal volume=[…]).

[2] = Selectivity toward biomolecules, thiols and metal ions (fluorescence at 550 nm); details: pH 7.4 PBS buffer, excitation 460 nm, emission 550 nm
Method: An aqueous solution (pH 7.4, PBS buffer) was used, and metal ions were purchased from Aldrich, Oriental Chemicals, Samchun chemicals, and Duksan chemicals. Compound 1 was dissolved in dimethyl sulfoxide (DMSO) at 10 mM and used, and the amount of dimethyl sulfoxide was controlled to be the same in each solvent (less than 1%) under the final solvent conditions used. The concentration of Compound 1 was 10 μM, and the biomolecule was treated identically at 10 μM. The excitation wavelength was 460 nm, and the fluorescence value at a fluorescence wavelength of 550 nm was measured using a fluorescence spectrophotometer, and is shown in FIG. 3.
The types of ions indicated on the horizontal axis in the graph of FIG. 3 are as follows: • (A) Probe 1 with DL-Homocysteine; • (B) Probe 1 with L-Cysteine; • (C) Probe 1 with L-Glutathion; • (D) Probe 1 with Hydrogen sulfide; • (E) Probe 1 with Bovine Serum Albumin; • (F) Probe 1 with Holmium (III) chloride; • (G) Probe 1 with Iron (II) chloride; • (H) Probe 1 with Iron (III) chloride; • (I) Probe 1 with Magnesium chloride; • (J) Probe 1 with Nikel (II) chloride; • (K) Probe 1 with Phosphorus pentachloride; • (L) Probe 1 with Gold trichloride; • (M) Probe 1 with Palladium (II) chloride; • (N) Probe 1 with potassium chloride; • (O) Probe 1 with Silver nitrate; • (P) Probe 1 with Sodium chloride; and • (Q) Probe 1 with Cobalt chloride.

[3] = pH-dependent homocysteine sensing ability (fluorescence at 550 nm); details: 10 μM probe, 10 μM homocysteine, stirred 10 minutes, excitation 460 nm, emission 550 nm
Method: The present inventors identified the homocysteine sensing ability of Compound 1 (NPO-pyr) according to acidity (pH).
Specifically, in order to observe the sensitivity of acidity (pH) to homocysteine based on the fluorescence turning-on of Compound 1, the sensitivity was identified under various acidity conditions (pH 3 to 9) while fixing the concentrations of Compound 1 (10 μM) and homocysteine (10 μM). In other words, 10 µM of homocysteine was treated under the conditions of pH 3, 5, 7, 7.4, and 9, respectively, and 10 μM of Compound 1 was stirred for 10 minutes, and then the fluorescence intensity was measured. In this connection, an excitation wavelength of 460 nm was used, and a fluorescence emission wavelength of 550 nm was measured. The fluorescence intensity is shown in the bar graph in FIG. 4.

[4] = Homocysteine sensing ability in mouse plasma (limit of detection); details: probe 10 μM, 10 minutes at 37° C., excitation 460 nm
Method: (§1) In order to identify the detection ability of Compound 1 (NPO-pyr) for homocysteine present in mouse plasma and feces, plasma (20 μL) isolated from blood and an extract (9.5 mg) extracted from mouse feces were dissolved in an aqueous solution (DI. H2O) (5 mL), treated with homocysteine at various concentrations (1 to 160 ng/μL), and then treated with Compound 1 (10 μM). After stirring for 10 minutes in a stirrer at 37° C. for reaction, the fluorescence spectrum was measured (excitation wavelength: 460 nm). Compound 1 was dissolved in DMSO solution at […] and used, and the amount of DMSO was ensured to be the same in each container (less than 1%) under the final solvent conditions used.

[5] = Homocysteine sensing ability in mouse feces; details: extract of mouse feces, probe 10 μM, 10 minutes at 37° C., excitation 460 nm
Method: as §1

[6] = Fluorescence intensity in plasma of glioblastoma mice versus normal mice; parameters: species or system mouse; details: plasma 7 and 14 days after the induction of glioblastoma, excitation 460 nm, emission 550 nm
Method: First, in order to prepare the experimental group, a glioblastoma mouse model was created by administering a solution containing 5.0×10^5 cells in 5 μL of cell culture media without fetal bovine serum (FBS) using LUC-U87MG cells (glioblastoma cells) to the mouse brain (thalamus).
In order to identify the reaction between Compound 1 and mouse plasma, a fluorescence measuring device (Spectro-fluorophotometer: SHIMADZU CORP. RF-6000, Japan) was used. The glass cuvette used for fluorescence measurements was a standard quartz cell with a thickness of 1 cm on all sides (internal volume=0.1 cm, Hellma Analytics, Jena, Germany).
In addition, in order to identify the reaction between Compound 1 and mouse plasma, blood was collected from the control group and the experimental group, the plasma was isolated, reacted with Compound 1, and then the fluorescence intensity was measured at an emission wavelength of 550 nm using a fluorescence measuring device (Spectro-fluorophotometer; SHIMADZU CORP. RF-6000, Japan) (excitation wavelength: 460 nm). The glass cuvette used for fluorescence measurements was a standard quartz cell with a thickness of 1 cm on all sides (internal volume=0.1 cm, Hellma Analytics, Jena, Germany).

[7] = Stability in aqueous solution; assay type: physicochemical; details: pH 7.4, PBS buffer

With O=[N+]([O-])c1ccc(Oc2ccncc2)c2nonc12 [Compound 1, 4-nitro-7-(pyridine-4-yloxy)benzo[c] [1,2,5] oxadiazole] the “time to increase in fluorescence after the addition of homocysteine (reaction time)” value ([1]; 10 μM probe, 10 μM homocysteine, excitation 460 nm) was no more than 5 min, the “fluorescence emission with other amino thiols except homocysteine” value ([1]; cysteine, glutathione, hydrogen sulfide, each 10 μM) was “no fluorescence emission was observed” and the “fluorescence intensity with homocysteine (A)” value ([2]; 10 μM probe, 10 μM DL-homocysteine) was “strong fluorescence intensity value”. For the same compound, the “fluorescence turn-on under amino thiol, metal ion and biomolecule conditions other than homocysteine” value ([2]; 10 μM probe, 10 μM analyte) was “little fluorescence turn-on phenomenon”, the “fluorescence intensity, probe alone (Only NPO-pyr)” value ([2]; 10 μM) was “almost no fluorescence intensity value” and the “sensitivity of the reaction with homocysteine at other pHs (3, 5, 9)” value [3] was “relatively weak”. For the same compound, the “sensitivity of the reaction with homocysteine at pH 7 and 7.4” value [3] was “most sensitive”, the “LOD value for homocysteine” value [4] was 0.176 ppm and the LOD value for homocysteine ([4]; printed conversion of the ppm value) was 1.3 µM. The “ability to sense homocysteine in mouse feces” value [5] was “potential to sense homocysteine”, the “fluorescence intensity in plasma of the experimental group (glioblastoma mice) compared to the control group (normal mice)” value [6] was “stronger fluorescence intensity” and the “stability in an aqueous solution” value [7] was “showed stability”.
